According to US5156956A, “Transgultaminase” (Ajinomoto Co., Inc., priority 1987, dated 1992):
Where two headings read alike, the source gives them in different places. Residues, ends and D or L forms follow the SMILES beside them. *: point of attachment. Cbz = O=C(OCc1ccccc1)*

Experiments:
BTG-3 [1] = target: T1, BTG-3 (Streptomyces cinnamoneus, UniProt Q8GR90); assay: Substrate specificity: synthetic substrates with hydroxylamine; type: biochemical; conditions: for Reactivity of substrate with BTG-3 (relative, Table 1): substrate 5 mM, with hydroxylamine; for Substrate specificity (%) BTG-3: Table 4
T1 construct: Ca2+-independent; made as pre-pro-protein
T1 sequence (Q8GR90 86-416): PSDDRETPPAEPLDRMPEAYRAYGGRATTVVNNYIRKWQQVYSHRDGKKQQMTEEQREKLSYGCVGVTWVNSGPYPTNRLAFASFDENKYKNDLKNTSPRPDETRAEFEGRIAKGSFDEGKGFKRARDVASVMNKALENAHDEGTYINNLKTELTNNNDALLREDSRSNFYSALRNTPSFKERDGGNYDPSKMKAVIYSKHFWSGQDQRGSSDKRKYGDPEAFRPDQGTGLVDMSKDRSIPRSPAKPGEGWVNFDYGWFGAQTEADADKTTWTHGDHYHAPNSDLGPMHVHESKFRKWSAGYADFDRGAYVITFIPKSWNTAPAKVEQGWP
Description: (§1) Measurement of the activity of BTGase is carried out by performing a reaction using benzyloxycarbonyl-L-glutaminyl glycine and hydroxylamine as substrates in the absence of Ca^2+, forming an iron complex with the resulting hydroxamic acid in the presence of trichloroacetic acid, measuring absorption at 525 nm and determining the amount of hydroxamic acid by a calibration curve to calculate the activity. The BTGase activity is measured by the method described below, unless otherwise indicated.
(§2) To 0.05 ml of an enzyme solution is added 0.5 ml of Reagent A and they are mixed with each other. After reacting at 37° C. for 30 minutes, Reagent B is added thereto to discontinue the reaction and form an Fe complex. Thereafter, absorbance is measured at 525 nm. […] Separately, a calibration curve is prepared using L-glutamic acid γ-monohydroxamio acid instead of the enzyme solution, and the amount of hydroxamic acid produced is determined by the difference in absorbance described above. An enzyme activity which produces 1 μmol of hydroxamic acid per 1 minute is defined as 1 unit.
(§3) Using each BTGase, reactions of various synthetic substrates with hydroxylamine were examined. […] In this case, the concentration of various synthetic substrates is 5 mM. In the table, CBZ, Gln, Gly and Asn are abbreviations for benzyloxycarbonyl group, glutaminyl group, glycyl group and asparaginyl group, respectively.

BTGase = assay: Substrate specificity, statement on all BTGases; type: biochemical, Streptoverticillium; conditions: substrate 5 mM, with hydroxylamine
Description: as §3

BTG-1 [2] = target: T2, BTG-1 (Streptomyces mobaraensis, UniProt P81453); assay: Substrate specificity: synthetic substrates with hydroxylamine; type: biochemical, Streptoverticillium mobaraense IFO 13819; conditions: for Reactivity of substrate with BTG-1 (relative, Table 1): substrate 5 mM, with hydroxylamine; for Substrate specificity (%) BTG-1: Table 4
T2 construct: BTGase is dissolved in the culture solution and can be harvested from the culture filtrate; endogenous in cells; host or cells: Streptoverticillium mobaraense IFO 13819 (natural producer; purified from culture filtrate)
T2 sequence (P81453 77-407): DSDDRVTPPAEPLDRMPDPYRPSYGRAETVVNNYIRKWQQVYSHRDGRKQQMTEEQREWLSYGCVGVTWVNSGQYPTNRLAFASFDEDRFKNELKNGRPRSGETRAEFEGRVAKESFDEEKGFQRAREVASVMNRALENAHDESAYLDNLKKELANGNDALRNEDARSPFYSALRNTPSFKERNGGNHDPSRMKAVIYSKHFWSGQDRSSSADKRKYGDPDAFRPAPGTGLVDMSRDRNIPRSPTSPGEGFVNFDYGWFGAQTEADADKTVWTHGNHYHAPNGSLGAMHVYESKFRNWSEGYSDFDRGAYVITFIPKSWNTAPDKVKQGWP
Description: as §1, §2, §3

BTG-2 [3] = target: T3, BTG-2 (Streptomyces griseocarneus, UniProt A0ABX7RSJ1); assay: as above; type: biochemical, Streptoverticillium griseocarneum IFO 12776; conditions: for Reactivity of substrate with BTG-2 (relative, Table 1): substrate 5 mM, with hydroxylamine; for Substrate specificity (%) BTG-2: Table 4
T3 construct: Ca2+-independent; made as pre-pro-protein
Description: as §1, §2, §3

[4] = target: T4, MTGase (transglutaminase of guinea pig liver) (UniProt P08587); assay: Substrate specificity: synthetic substrates; type: biochemical; conditions: Table 4
T4 construct: from tissue; host or cells: guinea pig liver
T4 sequence (P08587 1-690): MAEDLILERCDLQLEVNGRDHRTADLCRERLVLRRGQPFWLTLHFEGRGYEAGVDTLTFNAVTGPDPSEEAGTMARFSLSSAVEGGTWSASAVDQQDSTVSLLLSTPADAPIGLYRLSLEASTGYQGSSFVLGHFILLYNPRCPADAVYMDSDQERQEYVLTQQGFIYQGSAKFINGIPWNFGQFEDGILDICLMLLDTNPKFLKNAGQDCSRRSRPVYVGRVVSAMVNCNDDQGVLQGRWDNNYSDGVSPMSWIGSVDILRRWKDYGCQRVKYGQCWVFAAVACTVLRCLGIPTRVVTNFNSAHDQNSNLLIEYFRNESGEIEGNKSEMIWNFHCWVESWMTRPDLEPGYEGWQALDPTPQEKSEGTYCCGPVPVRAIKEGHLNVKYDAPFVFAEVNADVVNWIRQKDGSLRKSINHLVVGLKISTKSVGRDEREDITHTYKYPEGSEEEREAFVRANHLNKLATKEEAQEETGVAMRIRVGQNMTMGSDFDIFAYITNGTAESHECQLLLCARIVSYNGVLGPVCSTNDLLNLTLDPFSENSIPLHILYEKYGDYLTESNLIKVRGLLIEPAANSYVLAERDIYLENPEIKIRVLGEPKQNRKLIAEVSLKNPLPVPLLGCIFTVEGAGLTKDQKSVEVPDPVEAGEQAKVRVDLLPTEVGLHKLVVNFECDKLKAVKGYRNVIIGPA
Description: Next, properties of BTGases are compared to those of guinea pig liver-derived transglutaminase. The guinea pig liver-derived transglutaminase was prepared by the method described in Published Unexamined Japanese Patent Application No. 149645/83. As will be apparent from Tables 4 and 5, various differences in enzymological properties are noted between transglutaminase of guinea pig liver (hereafter referred to as MTGase) which has been mainly investigated heretofore and BTGases derived from actinomycetes; in particular, differences are noted in temperature stability, molecular weight, isoelectric point and substrate specificity. Further, a difference is noted in that the BTGases of the present invention act in the presence and absence of Ca^2+. Therefore, the respective enzymes of the present invention are different from MTGase in their properties.

all BTGases [5] = test system: all BTGases
BTG-1 [6] = target: T2, BTG-1; assay: biochemical; parameters: species or system Streptoverticillium mobaraense IFO 13819; conditions: for inhibition at 1000 µM: read-out: BTG-1 (%) activity with inhibitor
Description: as §1, §2

BTG-2 [7] = target: T3, BTG-2; assay: biochemical; parameters: species or system Streptoverticillium griseocarneum IFO 12776; conditions: for inhibition at 1000 µM: read-out: BTG-2 (%) activity with inhibitor
Description: as §1, §2

BTG-3 [8] = target: T1, BTG-3; assay: biochemical; conditions: for inhibition at 1000 µM: read-out: BTG-3 (%) activity with inhibitor
Description: as §1, §2

BTG-3 [9] = target: T1, BTG-3; assay: Influence of metal ions on activity; type: biochemical; conditions: metal ion 1 mM; None = 100; 30 min
Description: as §1, §2

all BTGases [10] = assay: Influence of metal ions, statement on all BTGases; type: biochemical, Streptoverticillium; conditions: metal ion 1 mM
Description: In all BTGases, the activity is inhibited by Cu^2+ and Zn^2+.

BTG-2 [11] = target: T3, BTG-2; type: biochemical, Streptoverticillium griseocarneum IFO 12776; conditions: metal ion 1 mM; None = 100; 30 min
Description: as §1, §2

BTG-1 [12] = target: T2, BTG-1; assay: Influence of metal ions on activity; type: biochemical, Streptoverticillium mobaraense IFO 13819; conditions: metal ion 1 mM; None = 100; 30 min
Description: as §1, §2

[13] = inhibitor 1 mM, 25° C. for 30 minutes
[14] = inhibitor 1 mM, 25° C. for 30 minutes, None = 100

Row | SMILES | Reactivity of substrate with BTG-3 (relative, Table 1) (BTG-3 [1]) | Reactivity of synthetic substrate with the BTGases (in words) (BTGase) | Reactivity of substrate with BTG-1 (relative, Table 1) (BTG-1 [2]) | Reactivity of substrate with BTG-2 (relative, Table 1) (BTG-2 [3]) | Substrate specificity (%) BTG-3 (BTG-3 [1]) | Substrate specificity (%) MTGase [4] | Substrate specificity (%) BTG-1 (BTG-1 [2]) | Substrate specificity (%) BTG-2 (BTG-2 [3]) | further results
1 | NCC(=O)N[C@@H](CCC(N)=O)C(=O)NCC(=O)O [Gly--Gln--Gly, glycylglutaminyl glycine] (H-Gly-Gln-Gly-OH) | 0 | No BTGase reacts | 0 | 0 |  |  |  |  | 
2 | NC(=O)CC[C@H](NC(=O)CNC(=O)OCc1ccccc1)C(=O)NCC(=O)NCC(=O)O [CBZ--Gly--Gln--Gly--Gly] (Cbz-GQGG-OH) | 11 |  | 8 | 12 | 11% | 126% | 8% | 12% | 
3 | NC(=O)CC[C@H](NC(=O)OCc1ccccc1)C(=O)O [CBZ--Gln, benzyloxycarbonyl glutamine] | 0 | No BTGase reacts | 0 | 0 |  |  |  |  | 
4 | CCOC(=O)CNC(=O)[C@H](CCC(N)=O)NC(=O)OCc1ccccc1 [CBZ--Gln--Gly--OEt] (Cbz-Gln-Gly-OEt) | 42 |  | 63 | 44 | 42% | 122% | 63% | 44% | 
5 | NC(=O)CC[C@H](NC(=O)CNC(=O)CNC(=O)OCc1ccccc1)C(=O)NCC(=O)O [CBZ--Gly--Gly--Gln--Gly] (Cbz-GGQG-OH) | 60 |  | 23 | 58 | 60% | 27% | 23% | 58% | 
6 | O=C(O)c1cc[c]([Hg][Cl])cc1 [PCMB, p-chloromercury benzoic acid] |  |  |  |  |  |  |  |  | Effect of inhibitor on activity of all BTGases (in words) (all BTGases [5]; [13]): inhibited; BTG-1 (%) activity with inhibitor (BTG-1 [6]; [14]): 54%; BTG-2 (%) activity with inhibitor (BTG-2 [7]; [14]): 61%; BTG-3 (%) activity with inhibitor (BTG-3 [8]; [14]): 63%
7 | CCN1C(=O)C=CC1=O [NEM, N-ethylmaleimide] |  |  |  |  |  |  |  |  | Effect of inhibitor on activity of all BTGases (in words) (all BTGases [5]; [13]): inhibited; inhibition at 1000 µM (BTG-1 [6]; [14]): 5%; inhibition at 1000 µM (BTG-2 [7]): 5%; inhibition at 1000 µM (BTG-3 [8]; [14]): 3%
8 | NC(=O)CC[C@H](NC(=O)OCc1ccccc1)C(=O)N[C@@H](CCC(N)=O)C(=O)NCC(=O)O [CBZ--Gln--Gln--Gly] (Cbz-Gln-Gln-Gly-OH) | 35 |  | 38 | 39 | 35% | 288% | 38% | 39% | 
9 | NC(=O)CC[C@H](NC(=O)OCc1ccccc1)C(=O)NCC(=O)O [CBZ--Gln--Gly, benzyloxycarbonylglutaminyl glycine] (Cbz-Gln-Gly-OH) | 100 | reactivity is the highest | 100 | 100 | 100% | 100% | 100% | 100% | 
10 | O=C(O)CI [Monoiodoacetic acid] |  |  |  |  |  |  |  |  | Effect of inhibitor on activity of all BTGases (in words) (all BTGases [5]): inhibited; inhibition at 1000 µM (BTG-1 [6]): 64%; inhibition at 1000 µM (BTG-2 [7]): 50%; inhibition at 1000 µM (BTG-3 [8]): 67%
11 | [Cl][Cu][Cl] [CuCl2] |  |  |  |  |  |  |  |  | BTG-3 (%) activity with metal ion (BTG-3 [9]): 86%; Effect of metal ion on activity of all BTGases (in words) (all BTGases [10]): inhibited; BTG-2 (%) activity with metal ion (BTG-2 [11]): 82%; BTG-1 (%) activity with metal ion (BTG-1 [12]): 79%
12 | [Cl-].[Cl-].[Zn+2] [ZnCl2] |  |  |  |  |  |  |  |  | BTG-3 (%) activity with metal ion (BTG-3 [9]): 24%; Effect of metal ion on activity of all BTGases (in words) (all BTGases [10]): inhibited; BTG-2 (%) activity with metal ion (BTG-2 [11]): 24%; BTG-1 (%) activity with metal ion (BTG-1 [12]): 15%
13 | NC(=O)C[C@H](NC(=O)OCc1ccccc1)C(=O)NCC(=O)O [CBZ--Asn--Gly, benzyloxycarbonylasparaginyl glycine] (Cbz-Asn-Gly-OH) | 0 | No BTGase reacts | 0 | 0 |  |  |  |  | 
